Measured values published in patent US20240122930A1, “INTEGRIN INHIBITORS AND USES THEREOF IN COMBINATION WITH OTHER AGENTS” (Pliant Therapeutics, Inc., priority 2022, published 2024).

Tests used:
[1] = system: IPF-derived human lung fibroblasts; assay: LAP adhesion assay, IPF-derived human lung fibroblasts (xCELLigence); format: cell-based; conditions: adhesion to LAP, FIG. 3B
Method: Two latency associated peptide (LAP) adhesion binding assays were devised using primary human lung cells, including normal (healthy) human bronchial epithelial cells and human lung fibroblasts (healthy and IPF).
Human lung fibroblasts derived from normal and IPF lung tissue are known to express αVβ1 integrin. The IPF-derived human lung fibroblasts were prepared for the assay by dissociation with trypsin/EDTA, and were seeded at 20,000 cells per well on 96 well plates (ACEA Bioscience E-plate View, Acea Biosciences; San Diego, CA) previously coated with […] of recombinant human LAP (R&D Systems; Minneapolis, MN) and blocked with 4% bovine serum albumin. Cell index (electrical impedance) was measured to assess cell attachment/spreading every 3 minutes for 24 hours at 37° C./5% CO2 using the xCELLigence RTCA MP Instrument (Acea Biosciences; San Diego, CA). […] In the assay, the IPF-derived human lung fibroblasts were separately incubated with: the αVβ1-selective small molecule inhibitor; the selective antibody αVβ6 inhibitor, 3G9; and Compound 5.

integrin beta-6 (ITGB6) = assay: Phase 2a clinical trial: plasma integrin beta-6; format: in vivo, human; conditions: IPF participants; greatest effect at 320 mg
Text: Med. 2022 June; 10(6):593-602, which is incorporated herein by reference in its entirety. […] Res. 2019 Jul. 12; 20(1):148, which is incorporated herein by reference in its entirety. ** denotes that p<0.01 vs placebo. LS refers to Least Squares. SE refers to Standard Error. Integrin beta-6 data was reported in relative quantitation log2 scale.

COL1A1 expression = assay: Precision cut lung slices from human IPF explants, COL1A1 expression; format: cell-based
Text: Explanted lung tissue was obtained from human IPF subjects and inflated with agarose as described in the preceding examples. Biopsy cores were obtained from the agarose-inflated lung tissue. The biopsy cores were subjected to precision slicing to obtain several hundred μm thick. Individual slices were distributed in a multiwell culture plate and cultured for […] under control (DMSO) and test compound conditions. The viability of the slices over the course of culturing was confirmed by WST-1 assay of mitochondrial activity.
PCLS from 5-7 idiopathic pulmonary fibrosis (IPF) lung tissue samples were cultured for seven days with one of: DMSO; Compound 5 at 200 nM; nintedanib at 75 nM; pirfenidone at 50 μM; a combination of Compound 5 at 200 nM and nintedanib at 75 nM; a combination of Compound 5 at 200 nM and pirfenidone at 50 μM; or an ALK5 inhibitor at 1 μM. […] FIG. 6D is a bar graph showing relative expression of COL1A1 in precision cut lung slices (PCLS) from idiopathic pulmonary fibrosis (IPF) lung tissue upon exposure to Compound 5, clinical standard of care compounds nintedanib (Nin) and pirfenidone (Pirf), and an ALK5 inhibitor, all versus DMSO control.
PCLS from a single IPF lung tissue sample were cultured for seven days with Compound 5 at concentrations of 200 pM, 2 nM, 60 nM, 200 nM, and 1 μM, along with 0.1% DMSO control and an ALK5 inhibitor at 1 μM. […] COL1A1 expression is also graphed for the PCLS in the presence of 0.1% DMSO control, and an ALK5 inhibitor at 1 μM.

## COCCN(CCCCc1ccc2c(n1)NCCC2)CC[C@H](Nc1ncnc2ccccc12)C(=O)O [Compound 5, (S)-4-((2-methoxyethyl) (4-(5,6,7,8-tetrahydro-1,8-naphthyridin-2-yl)butyl)amino)-2-(quinazolin-4-ylamino) butanoic acid]
[1]
  cell adhesion in the IPF-derived lung fibroblasts: substantially inhibited
Integrin beta-6 (ITGB6)
  Circulating (plasma) integrin beta-6 levels relative to placebo: reduced
COL1A1 expression; human IPF PCLS (5-7 tissues), 7 days, Compound 5 at 200 nM alone
  reduction of COL1A1 expression: 43%
COL1A1 expression; human IPF PCLS, 3 days, 3G9 ≥400 ng/mL, Compound 5 179 nM, ALK5 inhibitor 1 μM
  lung Col1a1 expression, normalized to DMSO control slices: substantial, statistically significant (p<0.01 vs vehicle) decrease
COL1A1 expression; human IPF PCLS, 7 days, 200 pM to 1 μM
  COL1A1 expression, dose response: dose dependent reduction
COL1A1 expression; human IPF PCLS, 7 days, Compound 5 at 200 nM in combination with nintedanib at 75 nM
  reduction of COL1A1 expression: 55%
COL1A1 expression; human IPF PCLS, 7 days, Compound 5 at 200 nM in combination with pirfenidone at 50 μM
  reduction of COL1A1 expression: 49%
